One experiment deals with Human Factor D (Homo sapiens (Human), UniProt P00746). Nature of the experiment: Human Factor D assay. It is filed as biochemical. Particulars: Table 3; Factor D inhibition, substrate Z-L-Lys-SBzl. The essentials: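 Serum-purified human factor D (80 nM final) preincubated 5 min at room temperature with test compound in 50 mM Tris, 1M NaCl, pH 7.5. Z-L-Lys-SBzl substrate and DTNB then added, each at 100 μM final. IC50 from nonlinear regression of reaction rate against compound concentration.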
Human Factor D, sequence (P00746 26-253): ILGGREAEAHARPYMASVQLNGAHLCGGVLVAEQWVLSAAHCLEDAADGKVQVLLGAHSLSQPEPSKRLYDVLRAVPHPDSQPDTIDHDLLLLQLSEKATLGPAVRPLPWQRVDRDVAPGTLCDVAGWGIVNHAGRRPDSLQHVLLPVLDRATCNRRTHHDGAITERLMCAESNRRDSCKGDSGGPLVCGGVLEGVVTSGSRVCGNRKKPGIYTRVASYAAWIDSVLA
By IC50 is commonly meant the concentration that inhibits the measured activity by half. Lower therefore signals higher potency. In turn, `CC(=O)c1nn(CC(=O)N2C[C@H](F)C[C@H]2C(=O)Nc2cccc(S(F)(F)(F)(F)F)c2)c2ccc(-c3cnc(C)nc3)cc12` [Compound 504, (2S,4R)-1-(2-(3-Acetyl-5-(2-methylpyrimidin-5-yl)-1H-indazol-1-yl)acetyl)-4-fluoro-N-(3-(pentafluoro-λ^6-sulfanyl)phenyl)pyrrolidine-2-carboxamide] yielded an IC50 below 1 µM. Take `CC(=O)c1nn(CC(=O)N2C[C@H](F)C[C@H]2C(=O)Nc2cccc(-c3ccc4c(c3)OC(F)(F)O4)c2F)c2ccc(-c3cnc(C)nc3)cc12` [Compound 528, (2S,4R)-1-(2-(3-Acetyl-5-(2-methylpyrimidin-5-yl)-1H-indazol-1-yl)acetyl)-N-(3-(2,2-difluorobenzo[d][1,3]dioxol-5-yl)-2-fluorophenyl)-4-fluoropyrrolidine-2-carboxamide]: the IC50 is below 1 µM. The molecule `CC(=O)c1nn(CC(=O)N2C[C@H](F)C[C@H]2C(=O)SCc2cccc(Cl)c2F)c2ccc(-c3cnc(C)nc3)cc12` [Compound 516, S-(3-Chloro-2-fluorobenzyl) (2S,4R)-1-(2-(3-acetyl-5-(2-methylpyrimidin-5-yl)-1H-indazol-1-yl)acetyl)-4-fluoropyrrolidine-2-carbothioate] came in with an IC50 of 1 to 10 µM. As to `CC(=O)c1nn(CC(=O)N2C[C@H](F)C[C@H]2C(=O)NC2CCN(c3ccc(C(=O)O)cn3)CC2)c2ccc(-c3cnc(C)nc3)cc12` [Compound 512, 6-(4-((2S,4R)-1-(2-(3-Acetyl-5-(2-methylpyrimidin-5-yl)-1H-indazol-1-yl)acetyl)-4-fluoropyrrolidine-2-carboxamido)piperidin-1-yl)nicotinic Acid], the IC50 fell in the range of 1 to 10 µM. `CC(=O)c1cn(CC(=O)NC(CC(F)(F)F)C(=O)Nc2cccc(-c3ccccc3Cl)c2F)c2ccc(-c3cnc(C)nc3)cc12` (centres unmarked) [Compound 507, 2-(2-(3-Acetyl-5-(2-methylpyrimidin-5-yl)-1H-indol-1-yl)acetamido)-N-(2′-chloro-2-fluorobiphenyl-3-yl)-4,4,4-trifluorobutanamide]: the IC50 was above 10 µM.

The same experiment, now with this note: Table 4; Factor D inhibition, substrate Z-L-Lys-SBzl.
On to `Cc1ccc(-c2ccc3c(c2)c(C(N)=O)cn3CC(=O)N2CCC(F)CC[C@H]2C(=O)Nc2cccc(C)n2)cn1` (stereo partly drawn) [Compound 586, 1-(2-((2S)-5-Fluoro-2-((6-methylpyridin-2-yl)carbamoyl)azepan-1-yl)-2-oxoethyl)-5-(6-methylpyridin-3-yl)-1H-indole-3-carboxamide], for which the IC50 was above 10 µM.

In turn, `CC(=O)c1nn(CC(=O)N2C[C@H]3C[C@H]3[C@H]2C(=O)Nc2ccn(CC(F)(F)F)n2)c2ccc(-c3cnc(C)nc3)cc12` [Compound 606, (1R,2S,5S)-3-(2-(3-acetyl-5-(2-methylpyrimidin-5-yl)-1H-indazol-1-yl)acetyl)-N-(1-(2,2,2-trifluoroethyl)-1H-pyrazol-3-yl)-3-azabicyclo[3.1.0]hex-ane-2-carboxamide] returned an IC50 below 1 µM. For the molecule `Cc1ncc(-c2ccc3c(c2)c(C(=O)CP(=O)(O)O)nn3CC(=O)N2C[C@H](F)C[C@H]2C(=O)Nc2cccc(Br)n2)cn1` [Compound 626, (2-(1-(2-((2S,4R)-2-((6-bromopyridin-2-yl)carbamoyl)-4-fluoropyrrolidin-1-yl)-2-oxoethyl)-5-(2-methylpyrimidin-5-yl)-1H-indazol-3-yl)-2-oxoethyl)phosphonic acid], the IC50 is above 10 µM. The molecule `Cc1cccc(NC(=O)[C@@H]2CCC(F)CCN2C(=O)Cn2cc(C(N)=O)c3cc(-c4ccc5cccnc5c4)ccc32)n1` (stereo partly drawn) [Compound 602, 1-(2-((2S)-5-Fluoro-2-((6-methylpyridin-2-yl)carbamoyl)azepan-1-yl)-2-oxoethyl)-5-(quinolin-7-yl)-1H-indole-3-carboxamide] registered an IC50 above 10 µM.

Regarding `Cc1cccc(NC(=O)[C@@H]2CCC(F)CCN2C(=O)Cn2cc(C(N)=O)c3cc(-c4cccc(C#N)c4)ccc32)n1` (stereo partly drawn) [Compound 591, 5-(3-Cyanophenyl)-1-(2-((2S)-5-fluoro-2-(6-methylpyridin-2-ylcarbamoyl)azepan-1-yl)-2-oxoethyl)-1H-indole-3-carboxamide], the concentration for half-maximal inhibition (IC50) was above 10 µM. On to `CC(=O)c1nn(CC(=O)N2C[C@H](F)C[C@H]2CC(=O)NC#N)c2ccc(-c3cnc(C)nc3)cc12` [Compound 579, 2-((2R,4R)-1-(2-(3-Acetyl-5-(2-methylpyrimidin-5-yl)-1H-indazol-1-yl)acetyl)-4-fluoropyrrolidin-2-yl)-N-cyanoacetamide], for which the IC50 is above 10 µM.

These data come from patent US11407738B2 (Achillion Pharmaceuticals, Inc., priority 2015, dated 2022).
